The target of this experiment is uPAR (Homo sapiens, UniProt Q03405). Kind of experiment: BIO-R4 assay (ELISA test): inhibition of uPA binding to its specific receptor uPAR. As to conditions: Inhibition of uPA binding to the specific uPAR receptor (BIO-R4); detection at 405 nm. As to the method:
The compounds of the invention were tested (ELISA test) as inhibitors of human urokinase (uPA) binding to its specific receptor uPAR mAk (BIO-R4), according to the procedure described in Biol. Chem. Hoppe-Seyler, 376, 587-94 (1995) by Rettenberger et al. The assays are performed in Microtiterplates (96 wells). The following solutions are used: • washing buffer: PBS-buffer (without Mg^2+ and Ca^2+) + 0.05% Tween 20; • incubation buffer (IP): 1% skimmed milk powder in PBS-buffer (without Mg^2+ and Ca^2+); • BIO-R4 solution: 50 ng/well (0.5 µg/ml 100 µl/well) in IP; • uPAR solution: 3 ng/well (30 ng/ml; 100 µl/well) in PBS-buffer (without Mg^2+ and Ca^2+); • blocking solution: 1% skimmed milk powder in washing buffer (dissolved at 37°C); • uPA solution: 0.25 ng/well (5 ng/ml; 50 µl/well) in IP.
Detection solutions (per microtiterplate):
• (1) 6 ml (100 mM Tris-Cl pH 7.2 + 0.15% Tween 80) + 1.5 ml (10 µg) plasminogen in aqua bidest; • (2) 6 ml (100 mM Tris-Cl pH 7.2 + 0.15% Tween 80) + 1.5 ml (7.5 mg) chromozyme PL in aqua bidest. […]
For detection, the following procedure is used: Incubation with 50 µl each of detection solution (1) and (2) at room temperature. After 20 minutes a yellow colour will be visible (the positive control reads an extinction of 1 after 45-60 minutes). The detection is performed at 405 nm (reference is 490 nm) using a Dynatech MR 7000 ELISA reader. […]

Chain of uPAR (Q03405 23-305 limits assumed): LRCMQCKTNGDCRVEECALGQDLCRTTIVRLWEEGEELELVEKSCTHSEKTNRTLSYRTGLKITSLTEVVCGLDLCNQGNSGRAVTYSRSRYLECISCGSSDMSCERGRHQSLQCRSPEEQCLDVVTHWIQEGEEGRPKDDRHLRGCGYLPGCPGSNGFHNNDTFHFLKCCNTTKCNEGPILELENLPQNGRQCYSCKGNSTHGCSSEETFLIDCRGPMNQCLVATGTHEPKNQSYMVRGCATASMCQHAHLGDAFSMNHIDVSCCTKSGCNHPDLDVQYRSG

With `CC(C)=C1Oc2cccc(OCc3cccc(CN4CCC(NC(=O)c5ccc(Cl)c(Cl)c5)CC4)c3)c2C1=O` [Example 11, 4-{3-[4-(3,4-dichlorobenzamido)piperidinomethyl]phenylmethoxy}-2-isopropylidenecoumaran-3-one], the IC50 (usually the concentration that gives 50% inhibition) stood at 1410 nM. The compound `CC(C)=C1Oc2cccc(OCC#CCN3CCC(NC(=O)c4ccc(Cl)c(S(N)(=O)=O)c4)CC3)c2C1=O` [Example 4, 4-{4-[4-(3-aminosulfonyl-4-chlorobenzamido)piperidino]but-2-ynoxy}-2-isopropylidenecoumaran-3-one] registered a half-maximal inhibitory concentration (IC50) of 1790 nM.

The values above are taken from patent EP1026165A1, “O-substituted Hydroxycoumaranone derivatives as antitumor and antimetastatic agents” (Roche Diagnostics GmbH, priority 1999, dated 2000).
